Measurements published in PubChem BioAssay AID1259407 (Chemical Carcinogenesis Research Information System (CCRIS), 2018).
Activity calls are given as the source filed them. The rule behind the calls is not given here.

System: CCRIS mutagenicity, Ames/micronucleus/aberration tests
Experiment: CCRIS mutagenicity studies
[1] = Test System: AMES SALMONELLA TYPHIMURIUM, Strain/Indicator: TA98, Metabolic Activation: NONE, Method: STANDARD PLATE
[2] = Test System: AMES SALMONELLA TYPHIMURIUM, Strain/Indicator: TA100, Metabolic Activation: NONE, Method: STANDARD PLATE
[3] = Test System: AMES SALMONELLA TYPHIMURIUM, Strain/Indicator: TA98, Metabolic Activation: NONE, Method: PREINCUBATION
[4] = Test System: AMES SALMONELLA TYPHIMURIUM, Strain/Indicator: TA98, Metabolic Activation: RAT, LIVER, S-9, AROCLOR 1254, Method: STANDARD PLATE
[5] = Test System: AMES SALMONELLA TYPHIMURIUM, Strain/Indicator: TA100, Metabolic Activation: RAT, LIVER, S-9, AROCLOR 1254, Method: STANDARD PLATE
[6] = Test System: AMES SALMONELLA TYPHIMURIUM, Strain/Indicator: TA1535, Metabolic Activation: NONE, Method: STANDARD PLATE
[7] = Test System: AMES SALMONELLA TYPHIMURIUM, Strain/Indicator: TA1537, Metabolic Activation: NONE, Method: STANDARD PLATE
[8] = Test System: AMES SALMONELLA TYPHIMURIUM, Strain/Indicator: TA1538, Metabolic Activation: NONE, Method: STANDARD PLATE
[9] = Test System: AMES SALMONELLA TYPHIMURIUM, Strain/Indicator: TA1535, Metabolic Activation: NONE, Method: PREINCUBATION
[10] = Test System: AMES SALMONELLA TYPHIMURIUM, Strain/Indicator: TA100, Metabolic Activation: NONE, Method: PREINCUBATION

Structure (SMILES): COc1cc(-c2nc(-c3ccccc3)c(-c3ccccc3)[nH]2)ccc1O
- mutagenic call [1]: inactive; negative
- mutagenic call (Test System: AMES SALMONELLA TYPHIMURIUM, Strain/Indicator: TA98, Metabolic Activation: RAT LIVER S-9, 3-METHYLCHOLANTHRENE, SODIUM PHENOBARBITAL, Method: STANDARD PLATE): inactive; negative
- mutagenic call [2]: active; positive

Structure (SMILES): CCOP(=S)(OCC)Oc1nc(Cl)n(C(C)C)n1
- mutagenic call [3]: active; positive
- mutagenic call (Test System: AMES SALMONELLA TYPHIMURIUM, Strain/Indicator: TA98, Metabolic Activation: RAT, LIVER, S-9, AROCLOR 1254, Method: PREINCUBATION): active; positive

Structure (SMILES): O=C1N=NC(=O)C2C=CC=CC12 (centres undefined)
- mutagenic call (Test System: AMES SALMONELLA TYPHIMURIUM, Strain/Indicator: TA98, Metabolic Activation: HAMSTER, LIVER, S-9, AROCLOR 1254, Method: STANDARD PLATE): inactive; negative
- mutagenic call [1]: inactive; negative
- mutagenic call [4]: inactive; negative
- mutagenic call (Test System: AMES SALMONELLA TYPHIMURIUM, Strain/Indicator: TA100, Metabolic Activation: HAMSTER, LIVER, S-9, AROCLOR 1254, Method: STANDARD PLATE): inactive; negative
- mutagenic call [2]: inactive; negative
- mutagenic call [5]: inactive; negative
- mutagenic call (Test System: AMES SALMONELLA TYPHIMURIUM, Strain/Indicator: TA1535, Metabolic Activation: HAMSTER, LIVER, S-9, AROCLOR 1254, Method: STANDARD PLATE): inactive; negative
- mutagenic call [6]: inactive; negative
- mutagenic call (Test System: AMES SALMONELLA TYPHIMURIUM, Strain/Indicator: TA1535, Metabolic Activation: RAT, LIVER, S-9, AROCLOR 1254, Method: STANDARD PLATE): inactive; negative
- mutagenic call (Test System: AMES SALMONELLA TYPHIMURIUM, Strain/Indicator: TA1537, Metabolic Activation: HAMSTER, LIVER, S-9, AROCLOR 1254, Method: STANDARD PLATE): inactive; negative
- mutagenic call [7]: inactive; negative
- mutagenic call (Test System: AMES SALMONELLA TYPHIMURIUM, Strain/Indicator: TA1537, Metabolic Activation: RAT, LIVER, S-9, AROCLOR 1254, Method: STANDARD PLATE): inactive; negative
- mutagenic call (Test System: AMES SALMONELLA TYPHIMURIUM, Strain/Indicator: TA1538, Metabolic Activation: HAMSTER, LIVER, S-9, AROCLOR 1254, Method: STANDARD PLATE): inactive; negative
- mutagenic call [8]: inactive; negative
- mutagenic call (Test System: AMES SALMONELLA TYPHIMURIUM, Strain/Indicator: TA1538, Metabolic Activation: RAT, LIVER, S-9, AROCLOR 1254, Method: STANDARD PLATE): inactive; negative
- mutagenic call (Test System: Mouse lymphoma, Strain/Indicator: L5178Y (tk+/tk-), Metabolic Activation: None, Method: Suspension/plate): inactive; negative
- mutagenic call (Test System: Mouse lymphoma, Strain/Indicator: L5178Y (tk+/tk-), Metabolic Activation: Rat, liver, S-9, Aroclor 1254, Method: Suspension/plate): active; positive

Structure (SMILES): C#CCOS(=O)(=O)c1ccc(C)cc1
- mutagenic call [2]: inactive; negative
- mutagenic call (Test System: AMES SALMONELLA TYPHIMURIUM, Strain/Indicator: TA100, Metabolic Activation: RAT, LIVER, S-9, Method: STANDARD PLATE): active; positive

Structure (SMILES): Cc1nc2c(c3[nH]c4ccccc4c13)C(=O)C=CC2=O
- mutagenic call (Test System: AMES SALMONELLA TYPHIMURIUM, Strain/Indicator: TA97, Metabolic Activation: NONE, Method: STANDARD PLATE): inactive; negative
- mutagenic call (Test System: AMES SALMONELLA TYPHIMURIUM, Strain/Indicator: TA97, Metabolic Activation: RAT, LIVER, S-9, AROCLOR 1254, Method: STANDARD PLATE): active; positive
- mutagenic call [1]: active; positive
- mutagenic call [4]: active; positive
- mutagenic call [2]: inactive; negative
- mutagenic call [5]: inactive; negative
- mutagenic call (Test System: AMES SALMONELLA TYPHIMURIUM, Strain/Indicator: TA102, Metabolic Activation: NONE, Method: STANDARD PLATE): inactive; negative
- mutagenic call (Test System: AMES SALMONELLA TYPHIMURIUM, Strain/Indicator: TA102, Metabolic Activation: RAT, LIVER, S-9, AROCLOR 1254, Method: STANDARD PLATE): inactive; negative

Structure (SMILES): Oc1ccc2ccccc2c1N=Nc1ccc(N=Nc2ccccc2)cc1
- mutagenic call [1]: inactive; negative
- mutagenic call [2]: inactive; negative

Structure (SMILES): COc1ccc(Cc2nccc3cc(OC)c(OC)cc23)cc1OC
- mutagenic call (Test System: AMES SALMONELLA TYPHIMURIUM, Strain/Indicator: TA100, Metabolic Activation: RAT, LIVER, S-9, PHENOBARBITAL AND BETA-NAPHTHOFLAVONE, Method: PREINCUBATION): active; positive

Structure (SMILES): O=C(O)/C=C/C=C/CO
- mutagenic call (Test System: CHINESE HAMSTER V-79, Strain/Indicator: V-79 (HGPRT)/8-AZAGUANINE, Metabolic Activation: NONE): inactive; negative

Structure (SMILES): C[n+]1c2cc(N)ccc2cc2ccc(N)cc21
- mutagenic call [9]: inactive; negative
- mutagenic call (Test System: AMES SALMONELLA TYPHIMURIUM, Strain/Indicator: TA1535, Metabolic Activation: RAT, LIVER, S-9, TETRACHLOROBIPHENYL, Method: PREINCUBATION): inactive; negative
- mutagenic call (Test System: AMES SALMONELLA TYPHIMURIUM, Strain/Indicator: TA1537, Metabolic Activation: NONE, Method: PREINCUBATION): active; positive
- mutagenic call (Test System: AMES SALMONELLA TYPHIMURIUM, Strain/Indicator: TA1537, Metabolic Activation: RAT, LIVER, S-9, TETRACHLOROBIPHENYL, Method: PREINCUBATION): active; positive
- mutagenic call (Test System: AMES SALMONELLA TYPHIMURIUM, Strain/Indicator: TA1538, Metabolic Activation: NONE, Method: PREINCUBATION): inactive; negative
- mutagenic call (Test System: AMES SALMONELLA TYPHIMURIUM, Strain/Indicator: TA1538, Metabolic Activation: RAT, LIVER, S-9, TETRACHLOROBIPHENYL, Method: PREINCUBATION): active; positive
- mutagenic call (Test System: AMES SALMONELLA TYPHIMURIUM, Strain/Indicator: TA1977, Metabolic Activation: NONE, Method: PREINCUBATION): active; positive
- mutagenic call (Test System: AMES SALMONELLA TYPHIMURIUM, Strain/Indicator: TA1977, Metabolic Activation: RAT, LIVER, S-9, TETRACHLOROBIPHENYL, Method: PREINCUBATION): active; positive
- mutagenic call (Test System: AMES SALMONELLA TYPHIMURIUM, Strain/Indicator: TA1978, Metabolic Activation: NONE, Method: PREINCUBATION): inactive; negative
- mutagenic call (Test System: AMES SALMONELLA TYPHIMURIUM, Strain/Indicator: TA1978, Metabolic Activation: RAT, LIVER, S-9, TETRACHLOROBIPHENYL, Method: PREINCUBATION): inactive; negative

Structure (SMILES): O=C(CBr)c1ccc(Br)cc1
- mutagenic call [3]: inactive; negative
- mutagenic call (Test System: AMES SALMONELLA TYPHIMURIUM, Strain/Indicator: TA98, Metabolic Activation: RAT, LIVER, S-9, PCB, Method: PREINCUBATION): inactive; negative
- mutagenic call [10]: inactive; negative
- mutagenic call (Test System: AMES SALMONELLA TYPHIMURIUM, Strain/Indicator: TA100, Metabolic Activation: RAT, LIVER, S-9, PCB, Method: PREINCUBATION): inactive; negative
- mutagenic call (Test System: E. COLI, Strain/Indicator: WP2 UVRA, Metabolic Activation: NONE, Method: PREINCUBATION): inactive; negative

Structure (SMILES): O=C(OCC1CO1)C1CCCCC1C(=O)OCC1CO1 (centres undefined)
- mutagenic call (Test System: AMES SALMONELLA TYPHIMURIUM, Strain/Indicator: TA100, Metabolic Activation: HAMSTER, LIVER, S-9, AROCLOR 1254 (30%), Method: PREINCUBATION): active; positive
- mutagenic call [10]: active; positive
- mutagenic call (Test System: AMES SALMONELLA TYPHIMURIUM, Strain/Indicator: TA100, Metabolic Activation: RAT, LIVER, S-9, AROCLOR 1254 (30%), Method: PREINCUBATION): active; positive
- mutagenic call (Test System: AMES SALMONELLA TYPHIMURIUM, Strain/Indicator: TA1535, Metabolic Activation: HAMSTER, LIVER, S-9, AROCLOR 1254 (30%), Method: PREINCUBATION): active; positive
- mutagenic call [9]: active; positive
- mutagenic call (Test System: AMES SALMONELLA TYPHIMURIUM, Strain/Indicator: TA1535, Metabolic Activation: RAT, LIVER, S-9, AROCLOR 1254 (30%), Method: PREINCUBATION): active; positive

Structure (SMILES): O=C(O)[C@@H]1CS[C@H](c2ccccc2O)N1C(=O)CCSSCCC(=O)N1[C@@H](c2ccccc2O)SC[C@H]1C(=O)O
- mutagenic call [1]: inactive; negative
- mutagenic call [2]: inactive; negative
- mutagenic call [6]: inactive; negative
- mutagenic call [7]: inactive; negative
- mutagenic call [8]: inactive; negative
- mutagenic call (Test System: E. COLI, Strain/Indicator: WP2, Metabolic Activation: NONE, Method: STANDARD PLATE): inactive; negative
- mutagenic call (Test System: E. COLI, Strain/Indicator: WP2 UVRA, Metabolic Activation: NONE, Method: STANDARD PLATE): inactive; negative
